The values that follow come from patent publication US6541463B1, “Inhibitors of type 5 and type 3 17β-hydroxysteroid dehydrogenase and methods for their use” (Endorecherche, Inc., priority 1998, dated 2003).

Where two headings read alike, the source gives them in different places.

By inhibition is commonly meant the share of the control response that was lost under treatment.

The target of the assay is T1, androgen receptor (Rattus norvegicus, UniProt P15207).
T1 construct: from tissue; host or cells: ventral prostate cytosol of gonadectomized male Sprague-Dawley rats
T1 sequence (P15207 1-902): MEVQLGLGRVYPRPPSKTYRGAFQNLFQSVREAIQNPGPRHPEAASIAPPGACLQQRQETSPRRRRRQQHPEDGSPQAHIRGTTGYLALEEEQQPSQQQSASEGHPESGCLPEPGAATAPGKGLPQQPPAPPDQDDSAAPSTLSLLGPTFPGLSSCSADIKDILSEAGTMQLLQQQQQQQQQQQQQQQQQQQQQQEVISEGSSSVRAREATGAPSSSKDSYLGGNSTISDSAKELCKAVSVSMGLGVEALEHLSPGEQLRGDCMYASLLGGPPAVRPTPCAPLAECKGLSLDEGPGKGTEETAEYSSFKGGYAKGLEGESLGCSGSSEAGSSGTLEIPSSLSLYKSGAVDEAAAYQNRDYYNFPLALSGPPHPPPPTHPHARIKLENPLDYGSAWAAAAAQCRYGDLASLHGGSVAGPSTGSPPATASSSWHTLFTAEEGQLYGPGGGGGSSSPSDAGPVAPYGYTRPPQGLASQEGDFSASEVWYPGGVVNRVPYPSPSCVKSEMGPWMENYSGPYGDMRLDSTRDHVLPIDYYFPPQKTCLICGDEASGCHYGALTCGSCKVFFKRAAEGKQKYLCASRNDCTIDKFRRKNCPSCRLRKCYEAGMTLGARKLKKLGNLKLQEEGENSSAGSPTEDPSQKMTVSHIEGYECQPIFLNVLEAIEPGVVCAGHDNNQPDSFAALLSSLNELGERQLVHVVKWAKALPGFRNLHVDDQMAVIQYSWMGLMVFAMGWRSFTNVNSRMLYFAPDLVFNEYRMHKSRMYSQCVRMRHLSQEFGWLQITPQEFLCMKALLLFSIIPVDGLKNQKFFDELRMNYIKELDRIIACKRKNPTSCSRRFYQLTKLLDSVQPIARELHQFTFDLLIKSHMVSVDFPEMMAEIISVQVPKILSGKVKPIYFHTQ
Kind of assay: Androgen receptor (AR) assay: inhibition of [3H]R1881 binding, prostate cytosol. As for the experimental part:
The manner in which the percentage of inhibition is determined is described in “Other Tests; D-Androgen Receptor (AR) Assays”. Lower numbers are desirable.
Male Sprague-Dawley rats (Crl: CD(SD)Br) weighing 200-300 g were obtained from Charles-River Inc. (St-Constant, Québec, Canada). The rats were gonadectomized under general anesthesia (Isoflurane) and killed by cervical dislocation 24 hours later. The ventral prostates were rapidly removed, dissected free from adhering tissue and frozen on dry-ice. Prostates were kept at −80° C. until assay.
All subsequent steps were performed at 0-4° C. Prostates were homogenized in 5 vol (wt/vol) of buffer A (25 mM Tris-HCl, 1.5 mM EDTA disodium salt, 10 mM α-monothioglycerol, 10% glycerol, and 10 mM sodium molybdate, pH 7.4), using a Polytron PT-10 homogenizer (Brinkman Instruments, Canada) at a setting of 5 for three periods of 10 sec, with intervals of 10 sec for cooling. The homogenate was then centrifuged at 105,000×g for 60 min in a Beckman L5-65 ultracentrifuge (Fullerton, Calif.).
Androgen binding was measured using the hydroxylapatite assay (HAP). In brief, the radioactive steroid [^3H]R1881 solubilized in ethanol was diluted into buffer A. Aliquots of prostate cytosol preparation (0.1 ml) were then incubated with 8 nM [^3H]R1881 (0.1 ml, ˜200,000 cpm) in the presence or absence of the indicated concentrations of unlabeled compounds (0.1 ml, prepared in buffer A containing 10% ethanol) for 16-18 h at 0-4° C. […] Unbound steroids were separated by incubation for 40 min at 0-4° C. with 0.3 ml HAP prepared in buffer P (50 mM, Tris-HCl, 10 mM KH2PO4, pH 7.4) as follows: 10 g HAP were washed with buffer P until the supernatant reached a pH of 7.4 and then following centrifugation and decantation of the supernatant, 37.5 ml of buffer P were added. After incubation with HAP and 10 minutes of centrifugation at 1,000×g, the pellet was washed 3 times with 1 ml buffer P. Thereafter, the radioactivity was extracted from the pellet by incubation at room temperature for 60 minutes with 1 ml EtOH. After centrifugation, the supernatant was decanted into a scintillation vial and the pellet was extracted again with ethanol.

The compound `CC1(C)CCC2(CCC3C4CCc5cc(OS(C)(=O)=O)ccc5C4CCC32C)OC1=O` (stereo not drawn) [EM-1365-CS] displayed an inhibition at 1 µM (Table 4′, E^−6) of 0%. Under “Table 4′, E^−8”, this compound showed an inhibition at 0.01 µM of 0%.

In the case of `CC(=O)O[C@]1(C(=O)N(C)C)CCC2C3C=C(C)C4=CC(=O)CC[C@]4(C)C3CC[C@@]21C` (stereo partly drawn) [EM-1159], the “% Inhibition Androgen Receptor” value runs as follows: (E^−6) 1%; (E^−8) 1%.

As for `COc1cc2c(cc1C)C1CCC3(C)C(CCC34CCC(C)(C)C(=O)O4)C1CC2` (stereo not drawn) [EM-1412-CS], the inhibition at 1 µM (Table 4′, E^−6) stood at 0%. Where the note is “Table 4′, E^−8”, this compound had an inhibition at 0.01 µM of 0%.

In the case of `CN1C(=O)C=C[C@]2(C)C3CC[C@@]4(C)C(CC[C@@]45CCCC(=O)O5)C3CCC12` (stereo partly drawn) [EM-1122-CS], 1 µM produced 8% inhibition (Table 5 column 13, E^−6). Besides, for the setting “Table 5 column 13, E^−8”, the inhibition at 0.01 µM came to 1%.

In the case of `CC1CCC2(CCC3C4CCc5cc(O)c([N+](=O)[O-])cc5C4CCC32C)OC1=O` [EM-1126, 2-Nitro-1,3,5(10)-estratrien-3-ol-17(R)-spiro-2′-(5′-methyl-6′-oxo)tetrahydropyran], the “% Inhibition Androgen Receptor E^−6” value (Table 4′, E^−6) is 10%. The “% Inhibition Androgen Receptor E^−8” value (Table 4′, E^−8) is recorded as 2%.

For the compound `COCCOc1cc2c(cc1C(=O)OC)C1CC[C@@]3(C)C(CC[C@@]34CCC(C)(C)C(=O)O4)C1CC2` (stereo partly drawn) [EM-1402-CS, 2-Carbomethoxy-3-(2″-methoxyethyloxy)-1,3,5(10)-estratrien 17(R)-spiro-2′-(5′,5′-dimethyl-6′-oxo)tetrahydropyran], the inhibition at 1 µM (Table 4′, E^−6) was 0%. This compound also yielded an inhibition at 0.01 µM (Table 4′, E^−8) of 0%.

As for `CC1(C)CC[C@@]2(CCC3C4CCc5cc(F)ccc5C4CC[C@@]32C)OC1=O` (stereo partly drawn) [EM-1157-CS], at 1 µM the inhibition (Table 4′, E^−6) was 0%. The same compound registered an inhibition at 0.01 µM (Table 4′, E^−8) of 0%.

As to `COCCOc1ccc2c(c1)CCC1C2CCC2(C)C1CCC21CCC(C)(C)C(=O)O1` [EM-1368-CS, 3-Methoxyethoxy-1,3,5(10)-estratrien-17(R)-spiro-2′-(5′,5′-dimethyl-6′-oxo)-tetrahydropyran], for the setting “Table 4′, E^−6”, the inhibition at 1 µM is 0%. The compound also showed an inhibition at 0.01 µM (Table 4′, E^−8) of 0%.

`COCCOc1cc2c(cc1C(N)=O)C1CC[C@@]3(C)C(CC[C@@]34CCC(C)(C)C(=O)O4)C1CC2` (stereo partly drawn) [EM-1424, 2-Carbamoyl-3-(2″-methoxyethyloxy)-1,3,5(10)-estratrien 17(R)-spiro-2′-(5′,5′-dimethyl-6′-oxo)tetrahydropyran]: the inhibition at 1 µM (Table 4′, E^−6) is 2%. This compound had an inhibition at 0.01 µM (Table 4′, E^−8) of 2%.

As to `CCC(=O)O[C@]1(C(C)=O)CCC2C3C=C(C)C4=CC(=O)C[C@H](C)[C@]4(C)C3CC[C@@]21C` (stereo partly drawn) [CS-243], the “% Inhibition Androgen Receptor” value reads like this: (E^−6) 33%; (E^−8) 0%.

`C[C@]12CCC3c4cc([N+](=O)[O-])c(O)cc4CCC3C1CC[C@@]21CCCC(=O)O1` (stereo partly drawn) [EM-1124, 2-Nitro-1,3,5(10)-estraetriene-3-ol-17(R)-spiro-2′-(6′-oxo)tetrahydropyran] returned an inhibition at 1 µM (Table 4′, E^−6) of 7%. Under “Table 4′, E^−8”, this compound had an inhibition at 0.01 µM of 1%.

Where the note is “E^−6”, `CC12C=CC(=O)C=C1C=CC1C2CCC2(C)C(=O)C3(CCCCC3)CC12` (stereo not drawn) [CS-204] had an inhibition at 1 µM of 5%. 0.01 µM produced 0% inhibition (E^−8).

Turning to `C[C@]12CCC3c4ccc(O)cc4CCC3C1CC[C@@]21CCCC(=O)O1` (stereo partly drawn) [EM-919, 1,3,5(10)-estratrien-3-ol-17(R)-spiro-2′(6′-oxo)tetrahydropyran], under “Table 4′, starred values, E^−5”, the “% Inhibition Androgen Receptor *E^−5” value is 6* %. For the same compound, the “% Inhibition Androgen Receptor *E^−7” value (Table 4′, starred values, E^−7) is on record as 0* %.

In turn, `CC1CCC2(CCC3C4CCc5ccccc5C4CCC32C)OC1=O` (stereo not drawn) [EM-1025] yielded an inhibition at 1 µM (Table 4′, E^−6) of 0%. Moreover, 0.01 µM produced 0% inhibition (Table 4′, E^−8).

Take `CC(C)C[C@@H]1CC2C3C=CC4=CC(=O)CC[C@]4(C)C3CC[C@]2(C)C1=O` (stereo partly drawn) [EM-1273-CS]: at 1 µM the inhibition (E^−6) was 0%. This compound also gave an inhibition at 0.01 µM (E^−8) of 0%.

On to `COCCOc1cc2c(cc1Cl)C1CCC3(C)C(CCC34CCC(C)(C)C(=O)O4)C1CC2` (stereo not drawn) [EM-1371-CS], for which testing at 1 µM (Table 4′, E^−6) gave an inhibition of 1%. The compound also returned an inhibition at 0.01 µM (Table 4′, E^−8) of 0%.

As to `CCC[C@@H]1CC2C3C=CC4=CC(=O)CC[C@]4(C)C3CC[C@]2(C)C1=O` (stereo partly drawn) [EM-1097], the inhibition at 1 µM (E^−6) worked out at 5%. Further, the inhibition at 0.01 µM (E^−8) is 0%.

For `C[C@]12CCC(=O)C=C1C=C[C@@H]1[C@@H]2CC[C@]2(C)C(=O)C3(CC4CC4C3)C[C@@H]12` (stereo partly drawn) [EM-1299, 4,6-Androstadien-3,17-dione-16-spirobicyclo[3′.1′.0′]-hexane], the “% Inhibition Androgen Receptor E^−6” value (E^−6) worked out at 3%. Besides, where the note is “E^−8”, the “% Inhibition Androgen Receptor E^−8” value was determined as 1%.

The compound `CC1(C)CC[C@@]2(CCC3C4CCc5cc(C(N)=O)ccc5C4CCC32C)OC1=O` (stereo partly drawn) [EM-1404] registered an inhibition at 1 µM (Table 4′, E^−6) of 0%. The same compound had an inhibition at 0.01 µM (Table 4′, E^−8) of 0%.

On to `CN(C)C(=O)c1ccc2c(c1)CCC1C2CCC2(C)C1CCC21CCC(C)(C)C(=O)O1` (stereo not drawn) [EM-1403], for which the inhibition at 1 µM (Table 4′, E^−6) is 0%. Also, for the setting “Table 4′, E^−8”, the inhibition at 0.01 µM stood at 0%.

Consider `COc1ccc2c(c1)C(=O)CC1C2CC[C@@]2(C)C1CC[C@@]21CCC(C)(C)C(=O)O1` (stereo partly drawn) [EM-1394], for which the inhibition at 1 µM (Table 4′, E^−6) was determined as 0%. For the setting “Table 4′, E^−8”, the inhibition at 0.01 µM amounted to 0%.

On to `CC12CCC3c4ccc(F)cc4CCC3C1CCC21CCCC(=O)O1` (stereo not drawn) [EM-1170-CS], for which at 1 µM the inhibition (Table 4′, E^−6) was 1%. Where the note is “Table 4′, E^−8”, this compound gave an inhibition at 0.01 µM of 0%.

`CCCC(=O)OC1(C(C)=O)CCC2C3C=C(C)C4=CC(=O)CC(C)C4(C)C3CCC21C` (stereo not drawn) [CS-245]: the “% Inhibition Androgen Receptor” value (E^−6) was found to be 71% and the “% Inhibition Androgen Receptor” value (E^−8) was 5%.

Consider `CCCC(=O)O[C@]1(C)C(=O)CCC2C3C=C(C)C4=CC(=O)CC[C@]4(C)C3CC[C@@]21C` (stereo partly drawn) [EM-1078], for which, for the setting “read-out: % Inhibition Androgen Receptor E^−6”, the inhibition at 1 µM is 83%. Further, the inhibition at 0.01 µM (read-out: % Inhibition Androgen Receptor E^−8) came to 7%.

The compound `CC1(C)CC[C@@]2(CCC3C4CCc5cc(C(=O)O)ccc5C4CC[C@@]32C)OC1=O` (stereo partly drawn) [EM-1401, 3-Carboxy-1,3,5(10)-estratrien-17(R)-spiro-2′-(5′,5′-dimethyl-6′-oxo)tetrahydropyran] yielded an inhibition at 1 µM (Table 4′, E^−6) of 0%. Moreover, the inhibition at 0.01 µM (Table 4′, E^−8) amounted to 0%.

On to `CC1(C)CCC2(CCC3C4CCc5c(cc(Cl)c(OS(C)(=O)=O)c5Cl)C4CCC32C)OC1=O` (stereo not drawn) [EM-1392-CS], for which, where the note is “Table 4′, E^−6”, the inhibition at 1 µM came out at 0%. The compound also registered an inhibition at 0.01 µM (Table 4′, E^−8) of 0%.

Regarding `CC1(C)CC[C@@]2(CC[C@H]3[C@@H]4CCc5c(cc(Br)c(O)c5Br)[C@H]4CC[C@@]32C)OC1=O` [EM-1382-CS], the “% Inhibition Androgen Receptor E^−6” value (Table 4′, E^−6) was determined as 0%. Besides, for the setting “Table 4′, E^−8”, the “% Inhibition Androgen Receptor E^−8” value is 0%.

On to `COC(=O)CCCC(=O)O[C@]1(C(C)=O)CC[C@H]2[C@@H]3C=C(C)C4=CC(=O)CC[C@]4(C)[C@H]3CC[C@@]21C` [EM-1007, 6-Methyl-4,6-pregnadien-17α-ol-3,20-dione 4′-Carbomethoxybutyrate], for which the “% Inhibition Androgen Receptor” value runs as follows: (E^−6) 0%; (E^−8) 0%.

With `CCS(=O)(=O)Oc1ccc2c(c1)CCC1C2CCC2(C)C1CCC21CCC(C)(C)C(=O)O1` (stereo not drawn) [EM-1364-CS], 1 µM produced 0% inhibition (Table 4′, E^−6). This compound also had an inhibition at 0.01 µM (Table 4′, E^−8) of 0%.

Turning to `CN(C)CCOc1ccc2c(c1)CCC1C2CCC2(C)C1CCC21CCC(C)(C)C(=O)O1` (stereo not drawn) [EM-1389-CS], the inhibition at 1 µM (Table 4′, E^−6) was 0%. Where the note is “Table 4′, E^−8”, this compound returned an inhibition at 0.01 µM of 0%.
